{"source": "patent US10894807B2", "about": "(Siemens Medical Solutions USA, Inc., priority 2011, dated 2021)", "target": "human PSMA (Homo sapiens (Human), UniProt Q04609)", "sequence (Q04609 whole entry)": "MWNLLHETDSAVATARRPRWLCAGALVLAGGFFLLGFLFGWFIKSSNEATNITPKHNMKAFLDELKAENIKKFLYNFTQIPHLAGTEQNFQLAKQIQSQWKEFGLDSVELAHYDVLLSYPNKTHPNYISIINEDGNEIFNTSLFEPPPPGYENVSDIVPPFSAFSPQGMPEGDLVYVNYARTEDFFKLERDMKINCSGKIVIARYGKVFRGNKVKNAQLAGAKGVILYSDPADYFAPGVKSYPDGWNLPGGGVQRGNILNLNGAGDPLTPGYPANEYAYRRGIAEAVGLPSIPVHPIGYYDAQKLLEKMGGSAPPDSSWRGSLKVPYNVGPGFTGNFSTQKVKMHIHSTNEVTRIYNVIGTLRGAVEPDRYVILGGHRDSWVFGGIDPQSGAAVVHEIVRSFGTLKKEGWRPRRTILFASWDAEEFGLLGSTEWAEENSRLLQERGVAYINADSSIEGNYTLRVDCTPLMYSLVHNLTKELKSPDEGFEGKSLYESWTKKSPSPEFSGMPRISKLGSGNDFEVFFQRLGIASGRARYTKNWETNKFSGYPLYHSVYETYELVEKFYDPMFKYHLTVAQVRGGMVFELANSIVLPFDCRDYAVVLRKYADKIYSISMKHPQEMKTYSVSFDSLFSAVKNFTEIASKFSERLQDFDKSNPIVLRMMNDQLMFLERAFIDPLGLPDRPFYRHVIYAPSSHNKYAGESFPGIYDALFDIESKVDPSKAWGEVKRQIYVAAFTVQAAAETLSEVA", "experiment": "Enzymatic assay for in vitro evaluation of PSMA inhibitors (fluorescent assay of PSMA activity, NAAG substrate, OPA detection of glutamate)", "assay_type": "biochemical", "conditions": "for PSMA Blkg % (10 μM): compound at 10 μM", "experimental": "Enzymatic Assay for In Vitro Evaluation of PSMA Inhibitors\nThe inhibitory activity of all compounds was determined using a fluorescent assay of human PSMA activity. The enzyme used in the assay was purchased from R&D Systems and stored at −80° C. The PSMA activity was assayed in a two-step process. In the first step, aliquots of enzyme (0.2 μg/mL) were incubated for 1 h at 37° C. in 50 mM HEPES, 0.1 M NaCl, pH 7.5, in the presence of 20 μM NAAG and the given inhibitor, in a volume of 250 μL, to allow for the accumulation of glutamate produced in the PSMA reaction. In the second step, the amount of accumulated glutamate was measured using the OPA reaction, and the fluorescence was read with a SpectraMax fluorescent plate reader using excitation at 330 nm and emission at 450 nm. The final Ki values for each inhibitor were calculated from the respective IC50 values using the Cheng and Prusoff equation.", "note": "Where a SMILES comes first, the peptide text is derived from it. [ ]: non-standard residue; d: D form. The star is where a group is joined. Boc = CC(C)(C)OC(=O)*; Nlys = NCCCCNCC(=O)O"}
{"compound": "Cc1ccc(-c2cn(CC(=O)N[C@@H](CC(=O)N[C@@H](CCC(=O)O)C(=O)O)C(=O)O)nn2)cc1", "note": "[P016, (S)-2-((S)-3-Carboxy-3-(2-(4-(p-tolyl)-1H-1,2,3-triazol-1-yl)acetamido)-propanamido)pentanedioic Acid]", "values": [{"measurement": "PSMA Blkg % (10 μM)", "result": 12, "unit": "%"}]}
{"compound": "O=C(O)CCN(CC(=O)O)NC(=O)NC(CSCc1ccccc1)C(=O)O", "note": "(centres unmarked) [P017, 3-(Benzylthio)-2-(2-(2-carboxyethyl)-2-(carboxymethyl)-hydrazinecarboxamido)propanoic Acid]", "values": [{"measurement": "PSMA Blkg % (10 μM)", "result": 0, "unit": "%"}]}
{"compound": "CN(C(=O)N[C@@H](CCC(=O)O)C(=O)O)[C@@H](CCCCNC(=O)OCc1ccccc1)C(=O)O", "note": "[P018, (9S,13S)-10-Methyl-3,11-dioxo-1-phenyl-2-oxa-4,10,12-triazapentadecane-9,13,15-tricarboxylic Acid]", "values": [{"measurement": "Ki", "result": 15.6, "unit": "nM"}, {"measurement": "PSMA Blkg % (10 μM)", "result": 99, "unit": "%"}]}
{"compound": "CN(C(=O)N[C@@H](CCCCNC(=O)OCc1ccccc1)C(=O)O)[C@@H](CCC(=O)O)C(=O)O", "note": "[P019, (9S,13S)-12-Methyl-3,11-dioxo-1-phenyl-2-oxa-4,10,12-triazapentadecane-9,13,15-tricarboxylic Acid]", "values": [{"measurement": "Ki", "result": 37.5, "unit": "nM"}, {"measurement": "PSMA Blkg % (10 μM)", "result": 97, "unit": "%"}]}
{"compound": "O=C(O)CC[C@H](NC(=O)C[C@H](NC(=O)Cn1cc(CCCF)nn1)C(=O)O)C(=O)O", "note": "[P020, (S)-2-((S)-3-Carboxy-3-(2-(4-(3-fluoropropyl)-1H-1,2,3-triazol-1-yl)acetamido)-propanamido)pentanedioic Acid]", "values": [{"measurement": "PSMA Blkg % (10 μM)", "result": 0, "unit": "%"}]}
{"compound": "O=C(O)CC[C@H](NC(=O)N(CC(=O)O)NC(=O)OCc1ccccc1)C(=O)O", "note": "[P021, (S)-2-(2-(Benzyloxycarbonyl)-1-(carboxymethyl)hydrazinecarboxamido) pentanedioic Acid]", "values": [{"measurement": "PSMA Blkg % (10 μM)", "result": 0, "unit": "%"}]}
{"compound": "O=C(O)CC[C@H](NC(=O)NCC(=O)O)C(=O)O", "note": "[P022, (S)-2-(3-(Carboxymethyl)ureido)pentanedioic Acid]", "values": [{"measurement": "PSMA Blkg % (10 μM)", "result": 77, "unit": "%"}]}
{"compound": "[N-]=[N+]=NCCCC(=O)N[C@@H](CC(=O)N[C@@H](CCC(=O)O)C(=O)O)C(=O)O", "note": "[P023, (S)-2-((S)-3-(4-Azidobutanamido)-3-carboxypropanamido)pentanedioic Acid]", "values": [{"measurement": "PSMA Blkg % (10 μM)", "result": 24, "unit": "%"}]}
{"compound": "C[C@@H](C(=O)O)N(C)C(=O)N[C@@H](CCC(=O)O)C(=O)O", "note": "[P024, (S)-2-(3-((S)-1-carboxyethyl)-3-methylureido)pentanedioic Acid]", "values": [{"measurement": "PSMA Blkg % (10 μM)", "result": 6, "unit": "%"}]}
{"compound": "C[C@H](NC(=O)N[C@@H](CCC(=O)O)C(=O)O)C(=O)O", "note": "[P025, (S)-2-(3-((S)-1-Carboxyethyl)ureido)pentanedioic Acid]", "values": [{"measurement": "PSMA Blkg % (10 μM)", "result": 92, "unit": "%"}]}
{"compound": "O=C(O)CCNC(=O)N[C@@H](CCC(=O)O)C(=O)O", "note": "[P026, (S)-2-(3-(2-Carboxyethyl)ureido)pentanedioic Acid]", "values": [{"measurement": "PSMA Blkg % (10 μM)", "result": 2, "unit": "%"}]}
{"compound": "O=C(O)CC[C@H](NC(=O)OCC(=O)O)C(=O)O", "note": "[P027, (S)-2-(((Carboxymethoxy)carbonyl)amino)pentanedioic Acid]", "values": [{"measurement": "PSMA Blkg % (10 μM)", "result": 31, "unit": "%"}]}
{"compound": "O=C(O)CN(CC(=O)O)CC(=O)N[C@H](CSCc1ccccc1)C(=O)O", "note": "[P028, (S)-2,2′-((2-((2-(Benzylthio)-1-carboxyethyl)amino)-2-oxoethyl)azanediyl)diacetic Acid]", "values": [{"measurement": "PSMA Blkg % (10 μM)", "result": 24, "unit": "%"}]}
{"compound": "CN(C(=O)CCCC(=O)O)[C@@H](CCC(=O)O)C(=O)O", "note": "[P029, (S)-2-(4-Carboxy-N-methylbutanamido)pentanedioic Acid]", "values": [{"measurement": "PSMA Blkg % (10 μM)", "result": 12, "unit": "%"}]}
{"compound": "O=C(O)CCCC(=O)NC(CCC(=O)O)C(=O)O", "note": "(centres unmarked) [P030, S)-2-(4-Carboxybutanamido)pentanedioic Acid]", "values": [{"measurement": "PSMA Blkg % (10 μM)", "result": 2, "unit": "%"}]}
{"compound": "C[C@H](NC(=O)CCCN=[N+]=[N-])C(=O)N[C@@H](CCC(=O)O)C(=O)O", "note": "[P031, (S)-2-((S)-2-(4-Azidobutanamido)propanamido)pentanedioic Acid]", "values": [{"measurement": "PSMA Blkg % (10 μM)", "result": 19, "unit": "%"}]}
{"compound": "CN(C(=O)N[C@@H](CCC(=O)O)C(=O)O)[C@@H](CCCCNC(=O)Cn1cc(CCCF)nn1)C(=O)O", "note": "[P032, (S)-2-(3-((S)-1-Carboxy-5-(2-(4-(3-fluoropropyl)-1H-1,2,3-triazol-1-yl)acetamido)pentyl)-3-methylureido)pentanedioic Acid]", "values": [{"measurement": "PSMA Blkg % (10 μM)", "result": 50, "unit": "%"}]}
{"compound": "O=C(O)CC[C@H](NC(=O)N[C@@H](CCCCNC(=O)OCc1ccccc1)C(=O)O)C(=O)O", "note": "[P033, (9S,13S)-3,11-Dioxo-1-phenyl-2-oxa-4,10,12-triazapentadecane-9,13,15-tricarboxylic Acid]", "values": [{"measurement": "Ki", "result": 0.78, "unit": "nM"}, {"measurement": "PSMA Blkg % (10 μM)", "result": 89, "unit": "%"}]}
{"compound": "CN(C(=O)N[C@@H](CCC(=O)O)C(=O)O)[C@@H](CCCCNC(=O)CN=[N+]=[N-])C(=O)O", "note": "[P034, (S)-2-(3-((S)-5-(2-Azidoacetamido)-1-carboxypentyl)-3-methylureido)pentanedioic Acid]", "values": [{"measurement": "PSMA Blkg % (10 μM)", "result": 70, "unit": "%"}]}
{"compound": "CCN(C(=O)N[C@@H](CCC(=O)O)C(=O)O)[C@@H](CCCCNC(=O)OCc1ccccc1)C(=O)O", "note": "[P035, (9S, 13S)-10-Ethyl-3,11-dioxo-1-phenyl-2-oxa-4,10,12-triazapentadecane-9,13,15-tricarboxylic Acid]", "values": [{"measurement": "PSMA Blkg % (10 μM)", "result": 0, "unit": "%"}]}
{"compound": "COc1ccc(-c2cn(CC(=O)NCCCC[C@@H](C(=O)O)N(C)C(=O)N[C@@H](CCC(=O)O)C(=O)O)nn2)cc1", "note": "[P036, (S)-2-(3-((S)-1-Carboxy-5-(2-(4-(4-methoxyphenyl)-1H-1,2,3-triazol-1-yl)acetamido)-pentyl)3-methylureido)pentanedioic Acid]", "values": [{"measurement": "PSMA Blkg % (10 μM)", "result": 68, "unit": "%"}]}
{"compound": "O=C(O)CC[C@H](Nc1nc(C(=O)O)co1)C(=O)O", "note": "[P037, (S)-2-((4-Carboxyoxazol-2-yl)amino)pentanedioic Acid]", "values": [{"measurement": "PSMA Blkg % (10 μM)", "result": 12, "unit": "%"}]}
{"compound": "O=C(O)CC[C@H](NC(=O)N(O)CCCc1ccccc1)C(=O)O", "note": "[P038, (S)-2-(3-Hydroxy-3-(3-phenylpropyl)ureido)pentanedioic Acid]", "values": [{"measurement": "PSMA Blkg % (10 μM)", "result": 2, "unit": "%"}]}
{"compound": "CC(C)(C)OC(=O)NCCCC[C@H](NC(=O)N[C@@H](CCC(=O)O)C(=O)O)C(=O)O", "note": "[P039, (10S,14S)-2,2-Dimethyl-4,12-dioxo-3-oxa-5,11,13-triazahexadecane-10,14,16-tricarboxylic Acid]", "values": [{"measurement": "PSMA Blkg % (10 μM)", "result": 77, "unit": "%"}]}
{"compound": "CC(=O)N(CCCCNC(=O)OC(C)(C)C)CC(=O)N[C@@H](CCC(=O)O)C(=O)O", "note": "[P040, (S)-2-(2-(N-(4-(tert-Butoxycarbonylamino)butyl)acetamido)acetamido)pentanedioic Acid] (Ac-[Nlys](Boc)-Glu-OH)", "values": [{"measurement": "PSMA Blkg % (10 μM)", "result": 42, "unit": "%"}]}
{"compound": "CC(C)(C)OC(=O)NCCCCN(CC(=O)N[C@@H](CCC(=O)O)C(=O)O)C(=O)NO", "note": "[P042, (S)-2-(2-(1-(4-(tert-Butoxycarbonylamino)butyl)-3-hydroxyureido)acetamido) pentanedioic Acid]", "values": [{"measurement": "PSMA Blkg % (10 μM)", "result": 0, "unit": "%"}]}
{"compound": "O=C(O)CC[C@H](NC(=O)N[C@@H](CCCCNC(=O)Cn1cc(Cn2ccnc2[N+](=O)[O-])nn1)C(=O)O)C(=O)O", "note": "[P043, (S)-2-(3-((S)-1-Carboxy-5-(2-(4-2((2-nitro-1H-imidazo-1-yl)-methyl)-1H-1,2,3-triazol-1-yl)acetamido)pentyl)ureido)pentanedioic Acid]", "values": [{"measurement": "PSMA Blkg % (10 μM)", "result": 77, "unit": "%"}]}
{"compound": "CN(C(=O)N[C@@H](CCC(=O)O)C(=O)O)[C@@H](CCCCNC(=O)Cn1cc(Cn2ccnc2[N+](=O)[O-])nn1)C(=O)O", "note": "[P044, (S)-2-(3-((S)-1-Carboxy-5-(2-(4-2((2-nitro-1H-imidazo-1-yl)methyl)-1H-1,2,3-triazol-1-yl)acetamido)pentyl)-3-methylureido)pentanedioic Acid]", "values": [{"measurement": "PSMA Blkg % (10 μM)", "result": 62, "unit": "%"}]}
{"compound": "O=C(O)CC[C@H](NC(=O)N[C@@H](CCCCNC(=O)CCCn1cc(CCCF)nn1)C(=O)O)C(=O)O", "note": "[P045, (S)-2-(3-((S)-1-Carboxy-5-(4-(4-(3-fluoropropyl)-1H-1,2,3-triazol-1-yl)-butanamido)pentyl)ureido)pentanedioic Acid]", "values": [{"measurement": "Ki", "result": 10.9, "unit": "nM"}, {"measurement": "PSMA Blkg % (10 μM)", "result": 95, "unit": "%"}]}
{"compound": "CN(C(=O)N[C@@H](CCC(=O)O)C(=O)O)[C@@H](CCCCNC(=O)CCCn1cc(CCCF)nn1)C(=O)O", "note": "[P046, (S)-2-(3-((S)-1-Carboxy-5-(4-(4-(3-fluoropropyl)-1H-1,2,3-triazol-1-yl)-butanamido)pentyl)-3-methylureido)pentanedioic Acid]", "values": [{"measurement": "Ki", "result": 328, "unit": "nM"}, {"measurement": "PSMA Blkg % (10 μM)", "result": 80, "unit": "%"}]}
{"compound": "CC(C)(C)OC(=O)NCCCCN(CC(=O)N[C@@H](CCC(=O)O)C(=O)O)C(N)=O", "note": "[P047, (S)-2-(2-(1-(4-(tert-Butoxycarbonylamino)butyl)ureido)acetamido)pentanedioic Acid]", "values": [{"measurement": "PSMA Blkg % (10 μM)", "result": 0, "unit": "%"}]}
{"compound": "CC(C)(C)OC(=O)NCCCCN(CC(=O)N[C@@H](CCC(=O)O)C(=O)O)C(=O)NC(N)=O", "note": "[P048, (S)-2-(2-(1-(4-(tert-Butoxycarbonylamino)butyl)-3-carbamoylureido)acetamido) pentanedioic Acid]", "values": [{"measurement": "PSMA Blkg % (10 μM)", "result": 0, "unit": "%"}]}
{"compound": "CC(C)(C)OC(=O)NCCCCN(CC(=O)O)CC(=O)N[C@@H](CCC(=O)O)C(=O)O", "note": "[P049, (S)-2-(2-((4-(tert-Butoxycarbonylamino)butyl)(carboxymethyl)amino)acetamido) pentanedioic Acid]", "values": [{"measurement": "PSMA Blkg % (10 μM)", "result": 0, "unit": "%"}]}
{"compound": "CC(C)(C)OC(=O)NCCCCN1CC(=O)N([C@@H](CCC(=O)O)C(=O)O)C(=O)C1", "note": "[P050, (S)-2-(4-(4-(tert-Butoxycarbonylamino)butyl)-2,6-dioxopiperazin-1-yl)pentanedioic Acid]", "values": [{"measurement": "PSMA Blkg % (10 μM)", "result": 0, "unit": "%"}]}
{"compound": "CC(C)(C)OC(=O)NCCCCNCC(=O)N[C@@H](CCC(=O)O)C(=O)O", "note": "[P051, (S)-2-(2-(4-(tert-Butoxycarbonylamino)butylamino)acetamido)pentanedioic Acid] (H-[Nlys](Boc)-Glu-OH)", "values": [{"measurement": "PSMA Blkg % (10 μM)", "result": 4, "unit": "%"}]}
{"compound": "CCS(=O)(=O)N(CCc1ccccc1)CC(=O)NC(CCC(=O)O)C(=O)O", "note": "(centres unmarked) [P052, 2-(2-(N-Phenethylethylsulfonamido)acetamido)pentanedioic Acid]", "values": [{"measurement": "PSMA Blkg % (10 μM)", "result": 2, "unit": "%"}]}
